Measured values from ChEMBL document CHEMBL4420063, “Pgam1 inhibitors and methods related thereto” (2014).

How the values were obtained:
[1] = Toxicity in ip dosed athymic nude-Foxn1nu mouse dosed for 4 weeks assessed as well-tolerated dose level; type: organism-based; conditions: in vivo, 672 h
NHDF = experiment: Antiproliferative activity against NHDF cells assessed as reduction in cell number up to 40 uM by trypan blue exclusion based assay; conditions: human
[2] = Antiproliferative activity against CD34-positive blood stem/progenitor cells from healthy human assessed as reduction in cell viability at 20 uM by trypan blue exclusion based assay
PBMC = experiment: Antiproliferative activity against PBMC from healthy human assessed as reduction in cell viability at 10 to 20 uM by MTT assay; type: cell-based
[3] = Antiproliferative activity against human PIG1 cells assessed as reduction in cell number up to 40 uM by trypan blue exclusion based assay
[4] = Toxicity in athymic nude-Foxn1nu mouse assessed as effect on complete blood counts at 100 mg/kg/day, ip for 7 days; type: organism-based; conditions: in vivo, 168 h
[5] = Toxicity in athymic nude-Foxn1nu mouse assessed as effect on liver at 100 mg/kg/day, ip for 7 days by H and E staining based histo-pathological analysis; type: organism-based; conditions: in vivo, 168 h
[6] = Toxicity in athymic nude-Foxn1nu mouse assessed as effect on kidney at 100 mg/kg/day, ip for 7 days by H and E staining based histo-pathological analysis; type: organism-based; conditions: in vivo, 168 h
[7] = Toxicity in athymic nude-Foxn1nu mouse assessed as effect on hematopoietic parameters at 100 mg/kg/day, ip for 7 days; type: organism-based; conditions: in vivo, 168 h
HaCaT = experiment: Antiproliferative activity against human HaCaT cells assessed as reduction in cell number up to 40 uM by trypan blue exclusion based assay
[8] = Toxicity in athymic nude-Foxn1nu mouse assessed as effect on lung at 100 mg/kg/day, ip for 7 days by H and E staining based histo-pathological analysis; type: organism-based; conditions: in vivo, 168 h
[9] = Toxicity in athymic nude-Foxn1nu mouse assessed as effect on body weight at 100 mg/kg/day, ip for 7 days; type: organism-based; conditions: in vivo, 168 h
NCI-H1299 = experiment: Inhibition of cell proliferation in human NCI-H1299 cells assessed as reduction in cell number by MTT assay; type: functional, cell-based
[10] = Toxicity in athymic nude-Foxn1nu mouse assessed as effect on spleen at 100 mg/kg/day, ip for 7 days by H and E staining based histo-pathological analysis; type: organism-based; conditions: in vivo, 168 h
HFF = experiment: Antiproliferative activity against HFF cells assessed as reduction in cell number up to 40 uM by trypan blue exclusion based assay; conditions: human
[11] = Inhibition of cell proliferation in human Tu212LN cells assessed as reduction in cell number by MTT assay; type: functional, cell-based
KG-1a [12] = experiment: Inhibition of cell proliferation in human KG1a cells assessed as reduction in cell number by MTT assay; type: functional, cell-based
KG-1a [13] = experiment: Inhibition of cell proliferation in human KG1a cells assessed as reduction in cell number by trypan blue exclusion based assay; type: functional

For `O=C1c2ccccc2C(=O)c2c1cc(S(=O)(=O)Nc1ccc(C(F)(F)F)cc1)c(O)c2O`, the Activity [1] was 100 mg/kg/day, the Activity (NHDF) was “Non-Toxic” and the Activity [2] was “Non-Toxic”. For the same compound, the Activity (PBMC) was “Non-Toxic”, the Activity [3] was “Non-Toxic” and the Activity [4] was “Non-Toxic”. For the same compound, the Activity [5] was “Non-Toxic”, the Activity [6] was “Non-Toxic” and the Activity [7] was “Non-Toxic”. The Activity (HaCaT) was “Non-Toxic”, the Activity [8] was “Non-Toxic” and the Activity [9] was “Non-Toxic”. The IC50 (NCI-H1299) was 25.6 µM, the Activity [10] was “Non-Toxic” and the Activity (HFF) was “Non-Toxic”. It also gave an IC50 [11] of 26.5 µM and an IC50 (KG-1a [12]) of 17.1 µM.
Compound `O=C1c2ccccc2C(=O)c2c1ccc(O)c2O` [ATHRAQUINONES A] has an IC50 (KG-1a [13]) of 58.6 µM and an IC50 (KG-1a [12]) of 60.2 µM.
